Test results as given in the supplement of paper PMC4862054.

tested on: MFM-223; experiment: normalised response (% of control), CellTox Green; higher = less cell death (100 = DMSO, 0 = benzethonium chloride kill control); settings: incubation time: 72 h
Outline: (§1)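 Two readouts were taken after 72 h: CellTox Green fluorescence (485/520 nm) first, then CellTiter-Glo luminescence after 10 min at room temperature. Breast cancer cell lines had been seeded as 20 µl suspension into 384-well plates holding compound at 5 concentrations in 10-fold steps across a compound-specific 10,000-fold range. Each value is a normalised signal at a single concentration, with plates scaled to 0.1 % DMSO (100) and a positive kill control (0).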

Structure (SMILES) | normalised response [%]
C=CCN(/C=C1/C(=O)O[C@H](COC)[C@@]2(C)C1=C(O)C(=O)C1=C2[C@H](OC(C)=O)C[C@]2(C)C(=O)CC[C@@H]12)CC=C [Sonolisib] (1000 nM) | 104

tested on: BT-474; experiment: as above; settings: incubation time: 72 h
Outline: as §1

Structure (SMILES) | normalised response [%]
CN[C@@H](C)C(=O)N[C@H]1CN(C(=O)CC(C)C)CC[C@H]2CC[C@@H](C(=O)NC(c3ccccc3)c3ccccc3)N2C1=O [AT-406] (1000 nM) | 89.7
CC1(COc2ccc3c(c2)ncn3-c2ccc3cccc(N4CCC(N)CC4)c3n2)COC1 [Crenolanib] (1000 nM) | 91.4
CC(C)(C)c1nc(-c2cccc(NS(=O)(=O)c3c(F)cccc3F)c2F)c(-c2ccnc(N)n2)s1 [Dabrafenib] (250 nM) | 99.1
Cc1nc(C(=O)NCC(=O)O)c(O)c2ccc(Oc3ccccc3)cc12 [FG-4592] (1000 nM) | 101
CC[C@H](CO)Nc1nc(NCc2ccccc2)c2ncn(C(C)C)c2n1 [Seliciclib] (1000 nM) | 101
C=CCN(/C=C1/C(=O)O[C@H](COC)[C@@]2(C)C1=C(O)C(=O)C1=C2[C@H](OC(C)=O)C[C@]2(C)C(=O)CC[C@@H]12)CC=C [Sonolisib] (1000 nM) | 95.1

tested on: MDA-MB-231; experiment: as above; settings: incubation time: 72 h
Outline: as §1

Structure (SMILES) | normalised response [%]
CN[C@@H](C)C(=O)N[C@H]1CN(C(=O)CC(C)C)CC[C@H]2CC[C@@H](C(=O)NC(c3ccccc3)c3ccccc3)N2C1=O [AT-406] (1000 nM) | -42.1
CC1(COc2ccc3c(c2)ncn3-c2ccc3cccc(N4CCC(N)CC4)c3n2)COC1 [Crenolanib] (1000 nM) | 124
CC(C)(C)c1nc(-c2cccc(NS(=O)(=O)c3c(F)cccc3F)c2F)c(-c2ccnc(N)n2)s1 [Dabrafenib] (250 nM) | 107
Cc1nc(C(=O)NCC(=O)O)c(O)c2ccc(Oc3ccccc3)cc12 [FG-4592] (1000 nM) | 103
CC[C@H](CO)Nc1nc(NCc2ccccc2)c2ncn(C(C)C)c2n1 [Seliciclib] (1000 nM) | 114
C=CCN(/C=C1/C(=O)O[C@H](COC)[C@@]2(C)C1=C(O)C(=O)C1=C2[C@H](OC(C)=O)C[C@]2(C)C(=O)CC[C@@H]12)CC=C [Sonolisib] (1000 nM) | 111

tested on: CAL-85-1; experiment: as above; settings: incubation time: 72 h
Outline: as §1

Structure (SMILES) | normalised response [%]
CN[C@@H](C)C(=O)N[C@H]1CN(C(=O)CC(C)C)CC[C@H]2CC[C@@H](C(=O)NC(c3ccccc3)c3ccccc3)N2C1=O [AT-406] (1000 nM) | 24
CC1(COc2ccc3c(c2)ncn3-c2ccc3cccc(N4CCC(N)CC4)c3n2)COC1 [Crenolanib] (1000 nM) | 104
CC(C)(C)c1nc(-c2cccc(NS(=O)(=O)c3c(F)cccc3F)c2F)c(-c2ccnc(N)n2)s1 [Dabrafenib] (250 nM) | 110
Cc1nc(C(=O)NCC(=O)O)c(O)c2ccc(Oc3ccccc3)cc12 [FG-4592] (1000 nM) | 101
CC[C@H](CO)Nc1nc(NCc2ccccc2)c2ncn(C(C)C)c2n1 [Seliciclib] (1000 nM) | 95.5
C=CCN(/C=C1/C(=O)O[C@H](COC)[C@@]2(C)C1=C(O)C(=O)C1=C2[C@H](OC(C)=O)C[C@]2(C)C(=O)CC[C@@H]12)CC=C [Sonolisib] (1000 nM) | 97

tested on: DU-4475; experiment: as above; settings: incubation time: 72 h
Outline: as §1

Structure (SMILES) | normalised response [%]
CN[C@@H](C)C(=O)N[C@H]1CN(C(=O)CC(C)C)CC[C@H]2CC[C@@H](C(=O)NC(c3ccccc3)c3ccccc3)N2C1=O [AT-406] (1000 nM) | 101
CC1(COc2ccc3c(c2)ncn3-c2ccc3cccc(N4CCC(N)CC4)c3n2)COC1 [Crenolanib] (1000 nM) | 101
CC(C)(C)c1nc(-c2cccc(NS(=O)(=O)c3c(F)cccc3F)c2F)c(-c2ccnc(N)n2)s1 [Dabrafenib] (250 nM) | 83
Cc1nc(C(=O)NCC(=O)O)c(O)c2ccc(Oc3ccccc3)cc12 [FG-4592] (1000 nM) | 107
CC[C@H](CO)Nc1nc(NCc2ccccc2)c2ncn(C(C)C)c2n1 [Seliciclib] (1000 nM) | 99.2
C=CCN(/C=C1/C(=O)O[C@H](COC)[C@@]2(C)C1=C(O)C(=O)C1=C2[C@H](OC(C)=O)C[C@]2(C)C(=O)CC[C@@H]12)CC=C [Sonolisib] (1000 nM) | 104

tested on: CAL-148; experiment: normalised response (% of control), CellTiter-Glo; higher = more viable cells (100 = DMSO, 0 = benzethonium chloride kill control); settings: incubation time: 72 h
Outline: as §1

Structure (SMILES) | normalised response [%]
CN[C@@H](C)C(=O)N[C@H]1CN(C(=O)CC(C)C)CC[C@H]2CC[C@@H](C(=O)NC(c3ccccc3)c3ccccc3)N2C1=O [AT-406] (1000 nM) | 82.4
CC1(COc2ccc3c(c2)ncn3-c2ccc3cccc(N4CCC(N)CC4)c3n2)COC1 [Crenolanib] (1000 nM) | 109
CC(C)(C)c1nc(-c2cccc(NS(=O)(=O)c3c(F)cccc3F)c2F)c(-c2ccnc(N)n2)s1 [Dabrafenib] (250 nM) | 101
Cc1nc(C(=O)NCC(=O)O)c(O)c2ccc(Oc3ccccc3)cc12 [FG-4592] (1000 nM) | 97.2
CC[C@H](CO)Nc1nc(NCc2ccccc2)c2ncn(C(C)C)c2n1 [Seliciclib] (1000 nM) | 104
C=CCN(/C=C1/C(=O)O[C@H](COC)[C@@]2(C)C1=C(O)C(=O)C1=C2[C@H](OC(C)=O)C[C@]2(C)C(=O)CC[C@@H]12)CC=C [Sonolisib] (1 nM) | 110
C=CCN(/C=C1/C(=O)O[C@H](COC)[C@@]2(C)C1=C(O)C(=O)C1=C2[C@H](OC(C)=O)C[C@]2(C)C(=O)CC[C@@H]12)CC=C [Sonolisib] (10 nM) | 107
C=CCN(/C=C1/C(=O)O[C@H](COC)[C@@]2(C)C1=C(O)C(=O)C1=C2[C@H](OC(C)=O)C[C@]2(C)C(=O)CC[C@@H]12)CC=C [Sonolisib] (1000 nM) | 109
O=[N+]([O-])c1ccc2c(c1)S(=O)(=O)C=C2 [Stattic] (5 nM) | 103
CC(C)n1cnc2c(NCCc3ccc(O)cc3)nc(-c3csc4ccccc34)nc21 [StemRegenin 1] (1 nM) | 98.7
CC(C)n1cnc2c(NCCc3ccc(O)cc3)nc(-c3csc4ccccc34)nc21 [StemRegenin 1] (10 nM) | 109

tested on: HCC1143; experiment: as above; settings: incubation time: 72 h
Outline: as §1

Structure (SMILES) | normalised response [%]
CN[C@@H](C)C(=O)N[C@H]1CN(C(=O)CC(C)C)CC[C@H]2CC[C@@H](C(=O)NC(c3ccccc3)c3ccccc3)N2C1=O [AT-406] (1000 nM) | 95.6
CC1(COc2ccc3c(c2)ncn3-c2ccc3cccc(N4CCC(N)CC4)c3n2)COC1 [Crenolanib] (1000 nM) | 101
CC(C)(C)c1nc(-c2cccc(NS(=O)(=O)c3c(F)cccc3F)c2F)c(-c2ccnc(N)n2)s1 [Dabrafenib] (250 nM) | 106
